Biological target: recombinant human renin (Homo sapiens (Human), UniProt P00797)
Assay: Renin inhibitory activity in vitro, FRET assay (item 2)
Assay type: biochemical
Settings: recombinant human renin 0.5 nM, 2 h at 37° C., pH 7.4, peptide substrate 4 μM
Description: Inter alia the following in vitro tests may be used: • 1) Recombinant human renin (expressed in Chinese Hamster Ovary cells and purified using standard methods) at 7.5 nM concentration is incubated with test compound at various concentrations for 1 h at RT in 0.1 M Tris-HCl buffer, pH 7.4, containing 0.05 M NaCl, 0.5 mM EDTA and 0.05% CHAPS. Synthetic peptide substrate […] is added to a final concentration of 2 μM and increase in fluorescence is recorded at an excitation wave-length of 350 nm and at an emission wave-length of 500 nm in a microplate spectro-fluorimeter. IC50 values are calculated from percentage of inhibition of renin activity as a function of test compound concentration (Fluorescence Resonance Energy Transfer, FRET, assay). […] Synthetic peptide substrate […] is added to a final concentration of 4 μM and increase in fluorescence is recorded at an excitation wave-length of 340 nm and at an emission wave-length of 485 nm in a microplate spectro-fluorimeter. IC50 values are calculated from percentage of inhibition of renin activity as a function of test compound concentration (Fluorescence Resonance Energy Transfer, FRET, assay). […] The enzyme reaction is stopped by adding an excess of a blocking inhibitor. The product of the reaction is separated by capillary electrophoresis and quantified by spectrophotometric measurement at […] wave-length. IC50 values are calculated from percentage of inhibition of renin activity as a function of test compound concentration. […] The enzyme reaction is stopped by adding an excess of a blocking inhibitor. The product of the reaction is separated by capillary electrophoresis and quantified by spectrophotometric measurement at […] wave-length. IC50 values are calculated from percentage of inhibition of renin activity as a function of test compound concentration. […] Renin inhibitory activity was assessed in vitro by the method as outlined above in item 2).

recombinant human renin, sequence (P00797 67-406): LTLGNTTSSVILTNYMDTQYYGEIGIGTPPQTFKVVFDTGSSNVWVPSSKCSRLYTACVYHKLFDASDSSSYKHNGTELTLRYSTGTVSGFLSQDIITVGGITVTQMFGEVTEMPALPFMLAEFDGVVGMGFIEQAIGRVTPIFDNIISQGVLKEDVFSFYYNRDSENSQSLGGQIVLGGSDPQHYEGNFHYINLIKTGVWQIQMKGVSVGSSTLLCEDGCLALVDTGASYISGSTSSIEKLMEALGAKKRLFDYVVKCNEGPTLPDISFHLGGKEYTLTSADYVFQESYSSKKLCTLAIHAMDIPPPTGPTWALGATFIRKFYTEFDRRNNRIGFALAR

Row | IC50 [nM] | SMILES
1 | 0.6 | CCOC[C@H](NC(=O)[C@@H]1CNC[C@H](C(=O)N(c2cc(OCC)c(CC)cn2)C2CC2)[C@@H]1O)C(C)C [Example 18]
2 | 9 | COC[C@H]1CC[C@H](NC(=O)[C@@H]2CNC[C@H](C(=O)N(c3cc(OC)c(C(C)C)cn3)C3CC3)[C@@H]2O)CC1 [Example 17]
3 | 2.5 | CCOC[C@H](NC(=O)[C@@H]1CNC[C@H](C(=O)N(c2ccc(C(C)C)cn2)C2CC2)[C@@H]1O)C(C)C [Example 16]

The next lines start with the compound.

Row | SMILES | IC50 [nM]
4 | CCOC[C@@H](CC(C)C)NC(=O)[C@@H]1CNC[C@H](C(=O)N(CC(C)C)c2cc(OCCCO)c(C(C)C)cn2)[C@@H]1O [Example 15] | 6
5 | CCOC[C@@H](CC(C)C)NC(=O)[C@@H]1CNC[C@H](C(=O)N(c2cc(OCC)c(CC)cn2)C2CC2)[C@@H]1O [Example 14] | 0.3
6 | CCOC[C@@H](CC(C)C)NC(=O)[C@@H]1CNC[C@H](C(=O)N(CC(C)C)c2cc(OCCCOC)c(C(C)C)cn2)C1 [Example 3] | 0.6
7 | CCOC[C@@H](CC(C)C)NC(=O)[C@@H]1CNC[C@H](C(=O)N(c2ccc(C(C)C)cn2)C2CC2)C1 [Example 1] | 0.9
8 | CCOC[C@@H](NC(=O)[C@@H]1CNC[C@H](C(=O)N(c2ccc(C(C)C)cn2)C2CC2)C1)C1CCCCC1 [Example 2] | 3
9 | CCOC[C@@H](CC(C)C)NC(=O)[C@@H]1CNC[C@H](C(=O)N(c2cc(OC)c(C(C)C)cn2)C2CC2)[C@@H]1O [Example 13] | 0.8
